Here are results for one compound from patent EP0114387A1, “Bis-guanidine compound salts, their preparation and microbicidal use” (HOECHST AKTIENGESELLSCHAFT, priority 1982, dated 1984).

Holding throughout (experiment): Microbicidal activity, minimum inhibitory concentration to kill 10^6 germs per ml
Holding throughout (format): cell-based
Holding throughout (conditions): room temperature, 10^6 Keime pro ml, read-out: minimale Hemmkonzentration

Experiment [1] relates to Aspergillus niger. How it is done: (§1) Die mikrobiozide Wirkung der erfindungsgemäßen Verbindungen zeigt Tabelle I (µg Wirkstoff/ml Wasser; Kontaktzeit 24 und 48 h; Raumtemperatur). Die angegebenen Zahlen bedeuten die minimalen Hemmkonzentrationen, um die vorgelegte Keimzahl von 10^6 Keimen pro ml abzutöten.
For experiment [2], the system named is Klebsiella pneumoniae. On the procedure:
as §1

The test system of experiment [3] is Escherichia coli. On the procedure: as §1
The test system of experiment [4] is Proteus mirabilis. How it is done: as §1
The subject of experiment [5] is Pseudomonas aeruginosa. How it is done:
as §1

For experiment [6], the system named is Desulfovibrio desulfuricans 39. How it is done: as §1
Experiment [7] relates to Desulfovibrio desulfuricans 85. How it is done: as §1
Experiment [8] deals with Staphylococcus aureus. How it is done: as §1
Experiment [9] concerns Candida albicans. On the procedure: as §1

Converted amounts (≈) assume the structure as drawn. Read-outs that look alike come from different tables or passages of the source.

For `CCCCCCCCCCN(CCCNC(=N)N)CCCNC(=N)N` [Beispiel 3], the MIC in [1] (contact time 24 h) is > 1000 mg/L; in experiment [1] (contact time 48 h), > 1000 mg/L; in [2] (contact time 24 h) it was 500 mg/L (≈ 1410 µM); in experiment [2] (contact time 48 h), 62.5 mg/L (≈ 176 µM); in experiment [3] (contact time 24 h) it was 250 mg/L (≈ 703 µM); in [3] (contact time 48 h) it was 62.5 mg/L (≈ 176 µM). Besides, the MIC in experiment [4] (contact time 24 h) was found to be 250 mg/L (≈ 703 µM); in experiment [4] (contact time 48 h), 62.5 mg/L (≈ 176 µM); in [5] (contact time 24 h), 500 mg/L (≈ 1410 µM); in experiment [5] (contact time 48 h), 62.5 mg/L (≈ 176 µM); in [6] (contact time 24 h) it was 15.6 mg/L (≈ 43.9 µM); in experiment [6] (contact time 48 h) it was 7.8 mg/L (≈ 21.9 µM). Also, the MIC was found to be 7.8 mg/L (≈ 21.9 µM) in experiment [7] (contact time 24 h); 7.8 mg/L (≈ 21.9 µM) in experiment [7] (contact time 48 h); 250 mg/L (≈ 703 µM) in experiment [8] (contact time 24 h); 62.5 mg/L (≈ 176 µM) in [8] (contact time 48 h); 250 mg/L (≈ 703 µM) in [9] (contact time 24 h); 62.5 mg/L (≈ 176 µM) in [9] (contact time 48 h).
